Measured values: patent US9409892B2, “4-hydroxy-isoquinoline compounds as HIF hydroxylase inhibitors” (FIBROGEN, INC., priority 2012, dated 2016)
“And” between values parts separate entries of the source, which are not always exact repeats. Identical values can stand only once. Like-named read-outs stand apart in the source and are kept apart here. Values belong to the molecule of their own block, whether it stands above or below them.

Columns and labels:
PHD2 (EGLN1) = PHD2 (EGLN1) (Homo sapiens (Human), UniProt Q9GZT9); experiment: HIF-PH assay (14CO2 capture), PHD2 enzyme inhibition; format: biochemical; conditions: Table 1
PHD1 (EGLN2) = PHD1 (EGLN2) (Homo sapiens (Human), UniProt Q96KS0); experiment: HIF-PH assay (14CO2 capture), PHD1 enzyme inhibition; format: biochemical; conditions: Table 1; for PHD2/PHD1: ratio of the IC50 of the compound for each enzyme
[1] = individual measurement, read-out: IC50 (μM) PHD2
[2] = individual measurement, read-out: IC50 (μM) PHD1

Sequence of PHD1 (EGLN2) (Q96KS0 whole entry): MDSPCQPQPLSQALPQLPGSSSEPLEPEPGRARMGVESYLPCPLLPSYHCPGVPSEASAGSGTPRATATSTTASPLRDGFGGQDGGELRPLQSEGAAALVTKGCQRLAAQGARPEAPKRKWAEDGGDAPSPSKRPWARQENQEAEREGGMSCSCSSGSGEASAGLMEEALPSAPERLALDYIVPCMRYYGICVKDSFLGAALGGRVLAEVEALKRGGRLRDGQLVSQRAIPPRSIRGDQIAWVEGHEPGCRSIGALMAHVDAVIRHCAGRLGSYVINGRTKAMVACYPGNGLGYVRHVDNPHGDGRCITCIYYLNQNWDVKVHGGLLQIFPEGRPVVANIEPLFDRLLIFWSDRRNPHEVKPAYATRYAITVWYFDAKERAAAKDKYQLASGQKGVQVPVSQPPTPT
Sequence of PHD2 (EGLN1) (Q9GZT9 whole entry): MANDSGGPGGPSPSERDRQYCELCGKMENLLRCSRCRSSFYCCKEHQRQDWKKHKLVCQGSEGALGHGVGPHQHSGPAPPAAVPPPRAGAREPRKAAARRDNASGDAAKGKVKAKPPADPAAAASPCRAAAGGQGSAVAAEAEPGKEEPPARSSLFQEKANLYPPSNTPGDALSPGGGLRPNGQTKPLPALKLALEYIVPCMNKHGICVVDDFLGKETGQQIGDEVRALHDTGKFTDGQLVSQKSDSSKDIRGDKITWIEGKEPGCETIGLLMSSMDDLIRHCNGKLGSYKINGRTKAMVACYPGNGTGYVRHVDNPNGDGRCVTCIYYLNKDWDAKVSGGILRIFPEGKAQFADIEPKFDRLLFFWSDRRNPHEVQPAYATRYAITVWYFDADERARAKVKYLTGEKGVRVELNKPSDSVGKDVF

Compound: COc1ccc(Oc2ccc3c(O)c(C(=O)NCCCCC(=O)O)ncc3c2)cc1 [Compound 105, 5-{[4-Hydroxy-7-(4-methoxy-phenoxy)-isoquinoline-3-carbonyl]-amino}-pentanoic acid]
- IC50 (PHD2 (EGLN1); [1]): 13.4 µM
- IC50 (PHD1 (EGLN2); [2]): 2.3 µM
- PHD2/PHD1 (PHD1 (EGLN2)): 6

Compound: N#Cc1nc(C(=O)NC2(CC(=O)O)CCC2)c(O)c2ccc(Oc3ccccc3)cc12 [Compound 106, {1-[(1-Cyano-4-hydroxy-7-phenoxy-isoquinoline-3-carbonyl)-amino]-cyclobutyl}-acetic acid]
- IC50 (PHD2 (EGLN1); [1]): 74.5 µM
- IC50 (PHD1 (EGLN2); [2]): 7.79 µM
- PHD2/PHD1 (PHD1 (EGLN2)): 10

Compound: Cc1cccc(C)c1Oc1ccc2c(C#N)nc(C(=O)NCCC(=O)O)c(O)c2c1 [Compound 109, 3{-[1-Cyano-6-(2,6-dimethyl-phenoxy)-4-hydroxy-isoquinoline-3-carbonyl]-amino}-propionic acid]
- IC50 (PHD2 (EGLN1); [1]): 30.4 µM
- IC50 (PHD1 (EGLN2); [2]): 6.4 µM
- PHD2/PHD1 (PHD1 (EGLN2)): 5

Compound: Cc1cccc(C)c1Oc1ccc2c(C#N)nc(C(=O)NCCCC(=O)O)c(O)c2c1 [Compound 110, 4-{[1-Cyano-6-(2,6-dimethyl-phenoxy)-4-hydroxy-isoquinoline-3-carbonyl]-amino}-butyric acid]
- IC50 (PHD2 (EGLN1); [1]): 21.3 µM
- IC50 (PHD1 (EGLN2); [2]): 3.63 µM
- PHD2/PHD1 (PHD1 (EGLN2)): 6

Compound: O=C(O)CCNC(=O)c1ncc2ccc(Oc3ccccc3)cc2c1O [Compound 112, 3-[(4-Hydroxy-6-phenoxy-isoquinoline-3-carbonyl)-amino]-propionic acid]
- IC50 (PHD2 (EGLN1); [1]): 200 µM
- IC50 (PHD1 (EGLN2); [2]): 23.7 µM
- PHD2/PHD1 (PHD1 (EGLN2)): 8

Compound: O=C(O)CCCNC(=O)c1ncc2ccc(Oc3ccccc3)cc2c1O [Compound 113, 4-[(4-Hydroxy-6-phenoxy-isoquinoline-3-carbonyl)-amino]-butyric acid]
- IC50 (PHD2 (EGLN1); [1]): 200 µM
- IC50 (PHD1 (EGLN2); [2]): 21.2 µM
- PHD2/PHD1 (PHD1 (EGLN2)): 9

Compound: O=C(O)CCNC(=O)c1ncc2cc(NC(=O)Nc3ccccc3)ccc2c1O [Compound 116, 3-{[4-Hydroxy-7-(3-phenyl-ureido)-isoquinoline-3-carbonyl]-amino}-propionic acid]
- IC50 (PHD2 (EGLN1); [1]): 29.2 µM
- IC50 (PHD1 (EGLN2); [2]): 3.34 µM
- PHD2/PHD1 (PHD1 (EGLN2)): 9

Compound: O=C(Nc1ccccc1)Nc1ccc2c(O)c(C(=O)NC[C@H](O)C(=O)O)ncc2c1 [Compound 117, (S)-2-Hydroxy-3-{[4-hydroxy-7-(3-phenyl-ureido)-isoquinoline-3-carbonyl]-amino}-propionic acid]
- IC50 (PHD2 (EGLN1); [1]): 51.4 µM
- IC50 (PHD1 (EGLN2); [2]): 4.66 µM
- PHD2/PHD1 (PHD1 (EGLN2)): 11

Compound: O=C(O)CCNC(=O)c1ncc2cc(NC(=O)c3ccc(F)cc3)ccc2c1O [Compound 118, 3-{[7-(4-Fluoro-benzoylamino)-4-hydroxy-isoquinoline-3-carbonyl]-amino}-propionic acid]
- IC50 (PHD2 (EGLN1); [1]): 113 µM
- IC50 (PHD1 (EGLN2); [2]): 6.45 µM
- PHD2/PHD1 (PHD1 (EGLN2)): 18

Compound: O=C(O)CCCNC(=O)c1ncc2cc(NC(=O)Nc3ccccc3)ccc2c1O [Compound 119, 4-{[4-Hydroxy-7-(3-phenyl-ureido)-isoquinoline-3-carbonyl]-amino}-butyric acid]
- IC50 (PHD2 (EGLN1); [1]): 72.3 µM
- IC50 (PHD1 (EGLN2); [2]): 12.6 µM
- PHD2/PHD1 (PHD1 (EGLN2)): 6

Compound: O=C(O)CCCNC(=O)c1ncc2cc(NC(=O)c3ccc(F)cc3)ccc2c1O [Compound 120, 4-{[7-(4-Fluoro-benzoylamino)-4-hydroxy-isoquinoline-3-carbonyl]-amino}-butyric acid]
- IC50 (PHD2 (EGLN1); [1]): 200 µM
- IC50 (PHD1 (EGLN2); [2]): 12.4 µM
- PHD2/PHD1 (PHD1 (EGLN2)): 16

Compound: CC(C)(CNC(=O)c1nc(C#N)c2cc(CCc3ccccc3)ccc2c1O)C(=O)O [Compound 122, 3-[(1-Cyano-4-hydroxy-7-phenethyl-isoquinoline-3-carbonyl)-amino]-2,2-dimethyl-propionic acid]
- IC50 (PHD2 (EGLN1); [1]): 29.3 µM
- IC50 (PHD1 (EGLN2); [2]): 2.57 µM
- PHD2/PHD1 (PHD1 (EGLN2)): 11

Compound: COc1ccc(CNc2ccc3c(O)c(C(=O)NCC(C)(C)C(=O)O)ncc3c2)cc1 [Compound 126, 3-{[4-Hydroxy-7-(4-methoxy-benzylamino)-isoquinoline-3-carbonyl]-amino}-2,2-dimethyl-propionic acid]
- IC50 (PHD2 (EGLN1); [1]): 200 µM
- IC50 (PHD1 (EGLN2); [2]): 34 µM
- PHD2/PHD1 (PHD1 (EGLN2)): 6

Compound: CC(C)(CNC(=O)c1ncc2cc(Sc3ccccc3)ccc2c1O)C(=O)O [Compound 127, 3-[(4-Hydroxy-7-phenylsulfanyl-isoquinoline-3-carbonyl)-amino]-2,2-dimethyl-propionic acid]
- IC50 (PHD2 (EGLN1); [1]): 63.1 µM
- IC50 (PHD1 (EGLN2); [2]): 7.69 µM
- PHD2/PHD1 (PHD1 (EGLN2)): 8

Compound: N#Cc1nc(C(=O)NCCCCC(=O)O)c(O)c2cc(Oc3ccccc3)ccc12 [Compound 128, 5-[(1-Cyano-4-hydroxy-6-phenoxy-isoquinoline-3-carbonyl)-amino]-pentanoic acid]
- IC50 (PHD2 (EGLN1); [1]): 65.2 µM
- IC50 (PHD1 (EGLN2); [2]): 8.99 µM
- PHD2/PHD1 (PHD1 (EGLN2)): 7

Compound: CC(C)(CNC(=O)c1ncc2cc(-c3ccccc3)ccc2c1O)C(=O)O [Compound 129, 3-[(4-Hydroxy-7-phenyl-isoquinoline-3-carbonyl)-amino]-2,2-dimethyl-propionic acid]
- IC50 (PHD2 (EGLN1); [1]): 180 µM
- IC50 (PHD1 (EGLN2); [2]): 25.3 µM
- PHD2/PHD1 (PHD1 (EGLN2)): 7

Compound: O=C(O)CCCNC(=O)c1ncc2cc(NC(=O)NC3CCCCC3)ccc2c1O [Compound 131, 4-{[7-(3-Cyclohexyl-ureido)-4-hydroxy-isoquinoline-3-carbonyl]-amino}-butyric acid]
- IC50 (PHD2 (EGLN1); [1]): 77.6 µM
- IC50 (PHD1 (EGLN2); [2]): 3.16 µM
- PHD2/PHD1 (PHD1 (EGLN2)): 25

The remaining lines, values ahead:

- IC50 (PHD2 (EGLN1); [1]): 4.78 µM
- IC50 (PHD1 (EGLN2); [2]): 0.79 µM
- PHD2/PHD1 (PHD1 (EGLN2)): 6
Compound: COc1ccc(Oc2ccc3c(O)c(C(=O)NC[C@H](O)C(=O)O)ncc3c2)cc1 [Compound 103, 2-(S)-Hydroxy-3-{[4-hydroxy-7-(4-methoxy-phenoxy)-isoquinoline-3-carbonyl]-amino}-propionic acid]

- IC50 (PHD2 (EGLN1); [1]): 19.5 µM
- IC50 (PHD1 (EGLN2); [2]): 3.3 µM
- PHD2/PHD1 (PHD1 (EGLN2)): 6
Compound: COc1ccc(Oc2ccc3c(O)c(C(=O)NCC(C)(C)C(=O)O)ncc3c2)cc1 [Compound 104, 3-{[4-Hydroxy-7-(4-methoxy-phenoxy)-isoquinoline-3-carbonyl]-amino}-2,2-dimethyl-propionic acid]

- IC50 (PHD2 (EGLN1); average of multiple independent measurements, read-out: IC50 (μM) PHD2 avg.): 11.8 µM
- IC50 (PHD2 (EGLN1); [1]): 9.28 µM and 14.4 µM
- IC50 (PHD1 (EGLN2); average of multiple independent measurements, read-out: IC50 (μM) PHD1 avg.): 2.37 µM
- PHD2/PHD1 avg. (PHD1 (EGLN2); average of the ratios of multiple independent measurements): 5 avg.
- IC50 (PHD1 (EGLN2); [2]): 2.46 µM and 2.28 µM
- PHD2/PHD1 (PHD1 (EGLN2)): 4 and 6
Compound: N#Cc1nc(C(=O)N[C@H](CCc2ccccc2)CC(=O)O)c(O)c2ccc(Oc3ccccc3)cc12 [Compound 107, 3-(R)-[(1-Cyano-4-hydroxy-7-phenoxy-isoquinoline-3-carbonyl)-amino]-5-phenyl-pentanoic acid]

- IC50 (PHD2 (EGLN1); [1]): 200 µM
- IC50 (PHD1 (EGLN2); [2]): 29 µM
- PHD2/PHD1 (PHD1 (EGLN2)): 7
Compound: Cc1nc(C(=O)NCCC(=O)O)c(O)c2ccc(Oc3ccccc3)cc12 [Compound 108, 3-[(4-Hydroxy-1-methyl-7-phenoxy-isoquinoline-3-carbonyl)-amino]-propionic acid]

- IC50 (PHD2 (EGLN1); [1]): 112 µM
- IC50 (PHD1 (EGLN2); [2]): 10.5 µM
- PHD2/PHD1 (PHD1 (EGLN2)): 11
Compound: Cc1cccc(C)c1Oc1ccc2c(C#N)nc(C(=O)NCCCCC(=O)O)c(O)c2c1 [Compound 111, 5-{[1-Cyano-6-(2,6-dimethyl-phenoxy)-4-hydroxy-isoquinoline-3-carbonyl]-amino}-pentanoic acid]

- IC50 (PHD2 (EGLN1); [1]): 86.6 µM
- IC50 (PHD1 (EGLN2); [2]): 13.5 µM
- PHD2/PHD1 (PHD1 (EGLN2)): 6
Compound: O=C(O)CCCCNC(=O)c1ncc2cc(Sc3ccccc3)ccc2c1O [Compound 114, 5-[(4-Hydroxy-7-phenylsulfanyl-isoquinoline-3-carbonyl)-amino]-pentanoic acid]

- IC50 (PHD2 (EGLN1); [1]): 14.8 µM
- IC50 (PHD1 (EGLN2); [2]): 1.41 µM
- PHD2/PHD1 (PHD1 (EGLN2)): 11
Compound: O=C(O)CCCNC(=O)c1ncc2cc(Sc3ccccc3)ccc2c1O [Compound 115, 4-[(4-Hydroxy-7-phenylsulfanyl-isoquinoline-3-carbonyl)-amino]-butyric acid]

- IC50 (PHD2 (EGLN1); [1]): 8.18 µM
- IC50 (PHD1 (EGLN2); [2]): 0.84 µM
- PHD2/PHD1 (PHD1 (EGLN2)): 10
Compound: CC(C)(CNC(=O)c1nc(C#N)c2cc(Sc3ccccc3)ccc2c1O)C(=O)O [Compound 121, 3-[(1-Cyano-4-hydroxy-7-phenylsulfanyl-isoquinoline-3-carbonyl)-amino]-2,2-dimethyl-propionic acid]

- IC50 (PHD2 (EGLN1); [1]): 183 µM
- IC50 (PHD1 (EGLN2); [2]): 6.11 µM
- PHD2/PHD1 (PHD1 (EGLN2)): 30
Compound: CC(C)(CNC(=O)c1nc(C#N)c2ccc(Oc3ccccc3)cc2c1O)C(=O)O [Compound 123, 3-[(1-Cyano-4-hydroxy-6-phenoxy-isoquinoline-3-carbonyl)-amino]-2,2-dimethyl-propionic acid]

- IC50 (PHD2 (EGLN1); [1]): 200 µM
- IC50 (PHD1 (EGLN2); [2]): 25.4 µM
- PHD2/PHD1 (PHD1 (EGLN2)): 8
Compound: O=C(O)CCCCNC(=O)c1ncc2cc(Nc3ccccc3)ccc2c1O [Compound 124, 5-[(4-Hydroxy-7-phenylamino-isoquinoline-3-carbonyl)-amino]-pentanoic acid]

- IC50 (PHD2 (EGLN1); [1]): 158 µM
- IC50 (PHD1 (EGLN2); [2]): 7.92 µM
- PHD2/PHD1 (PHD1 (EGLN2)): 20
Compound: COc1ccc(CNc2ccc3c(O)c(C(=O)NCCCCC(=O)O)ncc3c2)cc1 [Compound 125, 5-{[4-Hydroxy-7-(4-methoxy-benzylamino)-isoquinoline-3-carbonyl]-amino}-pentanoic acid]

- IC50 (PHD2 (EGLN1); [1]): 39.6 µM
- IC50 (PHD1 (EGLN2); [2]): 4.91 µM
- PHD2/PHD1 (PHD1 (EGLN2)): 8
Compound: O=C(O)CCNC(=O)c1ncc2cc(NC(=O)NC3CCCCC3)ccc2c1O [Compound 130, 3-{[7-(3-Cyclohexyl-ureido)-4-hydroxy-isoquinoline-3-carbonyl]-amino}-propionic acid]

- IC50 (PHD2 (EGLN1); [1]): 27.6 µM
- IC50 (PHD1 (EGLN2); [2]): 2.38 µM
- PHD2/PHD1 (PHD1 (EGLN2)): 12
Compound: O=C(O)CCNC(=O)c1ncc2cc(-c3ccc(F)cc3)ccc2c1O [Compound 132, 3-{[7-(4-Fluoro-phenyl)-4-hydroxy-isoquinoline-3-carbonyl]-amino}-propionic acid]

- IC50 (PHD2 (EGLN1); [1]): 6.06 µM
- IC50 (PHD1 (EGLN2); [2]): 0.85 µM
- PHD2/PHD1 (PHD1 (EGLN2)): 7
Compound: O=C(O)CCNC(=O)c1ncc2cc(NC(=O)NCc3ccccc3)ccc2c1O [Compound 133, 3-{[7-(3-Benzyl-ureido)-4-hydroxy-isoquinoline-3-carbonyl]-amino}-propionic acid]

- IC50 (PHD2 (EGLN1); [1]): 13.4 µM
- IC50 (PHD1 (EGLN2); [2]): 2.15 µM
- PHD2/PHD1 (PHD1 (EGLN2)): 6
Compound: O=C(O)CCCNC(=O)c1ncc2cc(NC(=O)NCc3ccccc3)ccc2c1O [Compound 134, 4-{[7-(3-Benzyl-ureido)-4-hydroxy-isoquinoline-3-carbonyl]-amino}-butyric acid]
